Data on eight molecules can be found in US20210267929A1, “COMPOSITIONS AND METHODS FOR TREATMENT OF ORAL ULCERATION AND ORAL MUCOSITIS” (CelaCare Technologies, Inc., priority 2018, published 2021).

≈ marks a conversion by molar mass, not a printed value.

The format of data set [1] is cell-based. The method, then: The product has been evaluated for cytotoxicity and deemed to be non-cytotoxic using a standard protocol at a GLP laboratory. […] A safety study for acemannan in humans was conducted to evaluate its effect in the treatment of oral aphthous ulcers. The initial study of 50 healthy patients received 0.5% acemannan incorporated into a Carbopol thickener applied to the oral mucosa of the lower lip three times a day for 7 days. Oral exams and kidney and liver function were evaluated prior to and at the end of the study. […] Since the present compositions are utilized as an oral rinse, acemannan is not expected to be absorbed systemically through the mucosa and will merely coat the patients' mouths. Acemannan has also previously been cleared to market in oral device products. Based on current safety data on the ingredients incorporated into the compositions and the 14-day duration of use for patients in the study, the compositions will not provide significant patient risks when dosed as intended.

A further data set has as its system healthy patients. To be noted: in vivo; cited from earlier work.
Data set [2] relates to Staphylococcus aureus ATCC 29213. Briefly: Microtube dilution MIC (CLSI M07), oral rinses vs vancomycin. The following applies: ATCC29213, read-out: MIC (mg/L) Mean. Format: cell-based. An excerpt: The purpose of this experiment was to determine the potency of one embodiment of the oral rinse on three common gram-positive cocci species tested: Staphylococcus aureus, Streptococcus pneumoniae, Streptococcus pyogenes by determining the minimal inhibitory concentrations (MIC) of the oral rinse on each species. The oral rinse was compared to vancomycin, a common antibiotic used to treat various infections.
The embodiment of the oral rinses (170915 and 171003) tested in this experiment included 10 ug/mL silver citrate complex, 4 mg/mL acemannan, 5 mg/mL Disodium EDTA, 0.1 mg/mL Hyaluronic acid, 2 mg/mL PVP, […] of masking and cherry flavor, purified water, and pH adjustment with tris(hydroxymethyl)aminomethane to a pH of 6.36 and pH of 6.40, respectively. The vancomycin control (Sigma-Aldrich, Cat: PHR1160-1G, Lot LRAA9717, 5120 ppm) was reconstituted 20.5 mg/4 mL RO water.
The antimicrobial activity of this embodiment of the oral rinse solution was tested using the microtube dilution method for determining minimal inhibitory concentrations (MIC) described in the Clinical and Laboratory Standards (CLSI) Methods for Dilution Antimicrobial Susceptibility Tests for Bacteria that Grow Aerobically, M07, 11th ed, Approved January 2018. […]

Data set [3] relates to Streptococcus pneumoniae ATCC 49619. To be noted: expected control range; cited from earlier work.
Data set [4] concerns Staphylococcus aureus ATCC 29213. The following applies: expected control range; cited from earlier work.
Data set [5] has as its system Candida parapsilosis ATCC 22019. Briefly: Broth microdilution MIC (EUCAST), oral rinse vs marketed antifungals. To be noted: 35° C., 48 hours, at least 50% OD530 inhibition; for MIC: Lodderomyces parapsilosis, ATCC22019, RPMI + 2% glucose, read-out: MIC (mg/L) Mean. Format: cell-based. The source says:
(§1) The purpose of this experiment was to determine the potency of one embodiment of the oral rinse on different Candida species, namely Candida albicansATCC 10231 and ATCC 24433, Candida glabrataATCC 15126, Candida krusei (Issechenkia orientalis)ATCC 6258, Candida parapsilosisATCC 22019, and Candida tropicalisATCC 1369, to determine the minimum inhibitory concentration (MIC) of the oral rinse on each species. The oral rinse was compared to current antifungal treatments on the market.
(§2) The embodiment of the oral rinse 150528 tested in this experiment included 10 μg/mL silver citrate complex, 3 mg/mL acemannan, 5 mg/mL Disodium EDTA, 0.1 mg/mL Hyaluronic acid, 2 mg/mL PVP, 3.5 mg/ml of masking and cherry flavor, purified water, pH adjustment with tris(hydroxymethyl)aminomethane to a pH of 6.59. The current antifungal treatments that were tested and compared were Fluconazole (Sigma-Aldrich, Cat: PHR1160-1G, Lot LRAA6502) a Nystatin suspension (Sigma-Aldrich, Cat: N6261-SMU, Lot 020M13491V), and Gentian Violet (1% Humco, Cat: NDC 0395-1003-92, Lot547845).
(§3) The antimicrobial activity of the oral rinse solution as described above, Example 1, was tested using the micro-tube dilution method described in the Method for Determination of Broth Dilution MICs of Antifungal agents for fermentative yeasts, published by the European Committee for Antimicrobial Susceptibility Testing (EUCAST). In brief, a standard inoculum of each microorganism was prepared by diluting a 0.5 MacFarland turbidity standard of the microorganism 1:100 in RPMI media without sodium bicarbonate plus 2% glucose. Then, 100 μL of the standard inoculum was added to equal volumes of two-fold serial dilutions of the oral rinse solution or controls, and the plates were incubated at 35° C. for 48 hours. MICs were determined photometrically as the lowest antimicrobial agent concentration (last well in the dilution series) that inhibited OD530 absorbance at least 50%. Each experiment was performed three times, with each antimicrobial agent tested in duplicate or triplicate.
(In broth dilution the organism is exposed to a series of concentrations in liquid medium.)

Data set [6] concerns Issatchenkia orientalis ATCC 6258 (formerly known as Candida krusei). The data set is described as above. Format: cell-based. The following applies: 35° C., 48 hours, at least 50% OD530 inhibition; for MIC: Pichia kudriavzevii, ATCC6258, RPMI + 2% glucose, read-out: MIC (mg/L) Mean.
Source text: as §1, §2, §3

Data set [7] relates to Candida glabrata ATCC 15126. Described as above. Format: cell-based. The following applies: 35° C., 48 hours, at least 50% OD530 inhibition; for MIC: Nakaseomyces glabratus, ATCC15126, RPMI + 2% glucose, read-out: MIC (mg/L) Mean.
Source text: as §1, §2, §3

For data set [8], the system named is Candida albicans ATCC 10231. Described as above. Format: cell-based. The following applies: 35° C., 48 hours, at least 50% OD530 inhibition; for MIC: ATCC10231, RPMI + 2% glucose, read-out: MIC (mg/L) Mean.
Source text: as §1, §2, §3

Data set [9] concerns Candida albicans ATCC 24433. The description is as above. Format: cell-based. To be noted: 35° C., 48 hours, at least 50% OD530 inhibition; for MIC: ATCC24433, RPMI + 2% glucose, read-out: MIC (mg/L) Mean.
Source text: as §1, §2, §3

Data set [10] has as its system Candida tropicalis ATCC 1369. The data set is described as above. Format: cell-based. To be noted: 35° C., 48 hours, at least 50% OD530 inhibition; for MIC: ATCC1369, RPMI + 2% glucose, read-out: MIC (mg/L) Mean.
Source text: as §1, §2, §3

Data set [11] has as its system Candida parapsilosis ATCC 22019. Briefly: Broth microdilution MIC (CLSI M27), oral rinses, silver API and controls. The following applies: 35° C., 24 hours, at least 50% OD530 inhibition; for MIC: Lodderomyces parapsilosis, ATCC22019, CLSI M27, RPMI, read-out: MIC (mg/L) Mean. Format: cell-based. The method, then:
(§4) This experiment tested two examples of the oral rinse in the treatment of three different Candida organisms associated with oral mucositis. The embodiments of the Oral Rinses tested in this experiment were: • Oral Rinse 170915-10 μg/mL silver citrate complex, 4 mg/mL acemannan, 5 mg/mL Disodium EDTA, 0.1 mg/mL Hyaluronic acid, 2 mg/mL PVP, 5.75 mg/ml of masking and cherry flavor, purified water, pH adjustment with tris(hydroxymethyl)aminomethane to a pH of 6.36. • Oral Rinse 170719-8 μg/mL silver citrate complex, 3.9 mg/mL acemannan, 5 mg/mL Disodium EDTA, 0.1 mg/mL Hyaluronic acid, 2 mg/mL PVP, 5.75 mg/ml of masking agent and cherry flavor, purified water, pH adjustment with tris(hydroxymethyl)aminomethane to a pH of 6.38.
(§5) The antimicrobial activity of two oral rinse solutions as described above, Example 2, was tested using the microtube dilution method described in the Clinical and Laboratory Standards Institute (CLSI) Reference Method for Broth Dilution Antifungal Susceptibility Testing of Yeasts, M27-4. In brief, a standard inoculum of each microorganism was prepared by diluting a 0.5 MacFarland turbidity standard of the microorganism 1:100 in RPMI media without sodium bicarbonate. Then, 100 μL of the standard inoculum was added to equal volumes of two-fold serial dilutions of the silver API (active pharmaceutical ingredient, silver citrate complex), controls, or the oral rinse solution, and the plates were incubated at 35° C. for 24 hours. MICs were determined photometrically as the lowest antimicrobial agent concentration (last well in the dilution series) that inhibited OD530 absorbance at least 50%. Each experiment was performed three times, with each antimicrobial agent tested in duplicate or triplicate.

For data set [12], the system named is Issatchenkia orientalis ATCC 5258 (formerly known as Candida krusei). The data set is described as above. Format: cell-based. The following applies: 35° C., 24 hours, at least 50% OD530 inhibition; for MIC: Pichia kudriavzevii, ATCC5258, CLSI M27, RPMI, read-out: MIC (mg/L) Mean. The method, then:
as §4, §5

Data set [13] deals with Candida albicans ATCC 24433. The description is as above. Format: cell-based. The following applies: 35° C., 24 hours, at least 50% OD530 inhibition; for MIC: ATCC24433, CLSI M27, RPMI, read-out: MIC (mg/L) Mean. The method, then: as §4, §5
Data set [14] relates to Candida parapsilosis ATCC 22019. The following applies: expected control range; cited from earlier work.
The test system of data set [15] is Issatchenkia orientalis ATCC 5258 (formerly known as Candida krusei). To be noted: expected control range; cited from earlier work.
The conditions of data set [16]: total body contents from past cases; cited from earlier work.
The conditions of data set [17]: estimated from animal studies in mice, rats, dogs, and monkeys; cited from earlier work.
The conditions of data set [18]: according to the EPA; cited from earlier work.

Consider acemannan, for which the cytotoxicity entry in data set [1] is “non-cytotoxic”. Further, in the data set on healthy patients, the “adverse effects or allergic reactions” value is recorded as “No patients reported adverse effects or allergic reactions”; the “pre- versus post-test blood values (kidney and liver function)” value is “no statistical difference”.
Take `CN[C@H](CC(C)C)C(=O)N[C@H]1C(=O)N[C@@H](CC(N)=O)C(=O)N[C@H]2C(=O)N[C@H]3C(=O)N[C@H](C(=O)N[C@H](C(=O)O)c4cc(O)cc(O)c4-c4cc3ccc4O)[C@H](O)c3ccc(c(Cl)c3)Oc3cc2cc(c3O[C@@H]2O[C@H](CO)[C@@H](O)[C@H](O)[C@H]2O[C@H]2C[C@](C)(N)[C@H](O)[C@H](C)O2)Oc2ccc(cc2Cl)[C@H]1O` [Vancomycin]: the MIC in [2] was determined as 0.7 mg/L (≈ 0.483 µM). In addition, the “MIC Control Range” value in data set [3] is listed as “Vancomycin (Control 0.06-0.5) mg/L”; in data set [4], “Vancomycin (Control 0.5-2.0) mg/L”.
On to `CN(C)c1ccc(C(=C2C=CC(=[N+](C)C)C=C2)c2ccc(N(C)C)cc2)cc1` [Gentian Violet], for which the MIC was 0.2 mg/L in data set [5]; 0.3 mg/L in data set [6]; 1.02 mg/L in data set [7]; 0.3 mg/L in [8]; 0.3 mg/L in data set [9]; 0.3 mg/L in data set [10].
Regarding `Nc1[nH]c(=O)ncc1F` [Flucytosine], the MIC in data set [11] worked out at 0.063 mg/L (≈ 0.488 µM); in data set [12] it was 3.67 mg/L (≈ 28.4 µM); in data set [13] it was 0.25 mg/L (≈ 1.94 µM). Also, the entries for the “MIC Control Range” value in data set [14] and in [15] were 0.06 to 0.25 µg/mL and 4 to 16 µg/mL, respectively.
As for `C[C@@H]1[C@H](O)[C@@H](C)/C=C/C=C/CC/C=C/C=C/C=C/C=C/C(O[C@H]2O[C@H](C)[C@@H](O)[C@H](N)[C@@H]2O)CC2O[C@](O)(CC(O)C(O)CCC(O)CC(O)CC(O)CC(=O)O[C@H]1C)CC(O)C2C(=O)O` (stereo partly shown) [Nystatin], the “MIC (mg/L) Mean” value is 2.7 mg/L in [5] (RPMI + 2% glucose); 5.4 mg/L in data set [6] (RPMI + 2% glucose); 2.7 mg/L in data set [7] (RPMI + 2% glucose); 3.9 mg/L in data set [8] (RPMI + 2% glucose); 4.8 mg/L in [9] (RPMI + 2% glucose); 2.2 mg/L in data set [10] (RPMI + 2% glucose).
Consider `OC(Cn1cncn1)(Cn1cncn1)c1ccc(F)cc1F` [Fluconazole], for which the MIC was 1.67 mg/L (≈ 5.44 µM) in [11]; 14.7 mg/L (≈ 47.9 µM) in data set [12]; 0.583 mg/L (≈ 1.9 µM) in data set [13]; 1.2 mg/L in [5]; 24 mg/L in data set [6]; 7.3 mg/L in data set [7]. The MIC in [8] was determined as 1.2 mg/L; in data set [9], 0.5 mg/L; in [10], 0.5 mg/L. In addition, the “MIC Control Range” value was 0.5 to 4.0 µg/mL in data set [14] and 8 to 64 µg/mL in [15].
With `[Ag]` [silver], in [16], the “total amount of silver required to cause argyria” value is 3.8 to 6.4 g. Further, the “human elimination of silver from oral ingestion” value in [17] is listed as 90%. Further, the “safe lifetime continuous exposure” value in data set [18] was 5 micrograms/kg/day.
Turning to Silver citrate complex, the “MIC (mg/L) Mean” value was 0.088 mg/L in data set [11] (CLSI M27, RPMI); 0.117 mg/L in data set [12] (CLSI M27, RPMI); 0.234 mg/L in [13] (CLSI M27, RPMI).
